The structures appear in SMILES notation. The source made the active and inactive calls. Some results are limits rather than exact numbers.

The target of assay [1] is DNA (cytosine-5)-methyltransferase 1 (Homo sapiens, UniProt P26358). The experiment in a line: inhibition of DNA methylation by DNMT1 – biochemical, fluorescent molecular beacon, confirmation (AID 602386). The format is functional.
For another assay, the target named is Cytochrome P450 2C9 (Homo sapiens, UniProt P11712).
For the next assay, the system named is HeLa. Put plainly: viability loss in HeLa cells – cell-based, 24 h, cherry-picked samples, cytotoxicity control, dose response (AID 504726).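 Note: potency for cytotoxicity as loss of luminescence signal.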 In kind it is functional. Particulars: Homo sapiens.
Assay [2] can be described thus: viability loss in THP-1 monocytes – THP-1 cells, cytotoxicity control for Vif-APOBEC3G degradation inhibitor project, dose response (AID 1117359). In kind it is functional. The settings on record: THP-1.
The next assay deals with Cytochrome P450 2C19 (Homo sapiens, UniProt P33261). Put plainly: Cytochrome panel assay with activity outcomes. Panel member name: p450-cyp2c19 Compounds with AC50 equal or less than 10 uM are considered active. The format is functional. Particulars: read-out: AC50.
Assay [3] deals with Acyl-homoserine lactone acylase PvdQ (Pseudomonas aeruginosa (strain LESB58), UniProt Q9I194). The experiment in a line: PvdQ acylase enzyme activity blockers – biochemical, fluorescence, plate reader and imaging, cherry-picks, dose response (AID 493231).
Assay [4] deals with Dual specificity protein phosphatase 3 (Homo sapiens, UniProt P51452). Put plainly: inhibition constants for human DUSP3 – biochemical, colorimetric, SAR follow-up (AID 2004).
The next assay has as its target T1, Streptokinase A (Streptococcus pyogenes serotype M1, UniProt P10520).
T1 sequence (P10520 whole entry): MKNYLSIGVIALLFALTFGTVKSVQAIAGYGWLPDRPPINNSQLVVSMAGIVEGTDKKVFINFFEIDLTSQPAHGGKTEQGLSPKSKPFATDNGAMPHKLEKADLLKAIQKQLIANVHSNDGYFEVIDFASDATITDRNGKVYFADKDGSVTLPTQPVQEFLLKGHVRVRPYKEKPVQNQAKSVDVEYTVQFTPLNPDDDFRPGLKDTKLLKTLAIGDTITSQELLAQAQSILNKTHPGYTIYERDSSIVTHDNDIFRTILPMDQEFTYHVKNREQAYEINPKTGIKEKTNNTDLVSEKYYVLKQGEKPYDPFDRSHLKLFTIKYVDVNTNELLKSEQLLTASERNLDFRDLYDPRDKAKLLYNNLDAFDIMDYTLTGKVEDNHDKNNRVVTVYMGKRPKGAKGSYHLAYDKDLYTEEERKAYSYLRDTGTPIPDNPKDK
The experiment in a line: viability-normalized secreted streptokinase activity reduction – plasminogen activation absorbance, OD405, dose response (AID 1914).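 Note: secreted streptokinase activity via plasminogen activation per viability signal from cell pellet.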 In kind it is functional, Streptococcus pyogenes M1 GAS.

The subject of a further assay is Streptococcus. Put plainly: GAS UMAA2166 growth inhibition – luminescence, BacTiterGlo, counter-screen for streptokinase expression inhibitor project, dose response (AID 1915).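 Note: potency for reduction of bacterial viability or growth.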 The format is functional, organism-based.
In assay [5] the test system is Streptococcus sp. 'group A'. The experiment in a line: Streptococcus pyogenes SK(-)GAS viability under kanamycin – luminescence, BacTiterGlo, confirmation, counter-screen for streptokinase expression inhibitor project, dose response (AID 1900). In kind it is functional, organism-based.
The target in assay [6] is Peroxisome proliferator-activated receptor gamma/Nuclear receptor coactivator 2 (Homo sapiens, UniProt P37231). In kind it is functional.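 Note: agonist potency for raising coactivator recruitment to the receptor.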
Assay [7] has as its target Scavenger receptor class B member 1 (Mus musculus, UniProt Q61009). Put plainly: mouse SR-BI DiI-HDL uptake blockers – ldlA[mSR-BI] cells, fluorescence, cherry pick, dose response (AID 493194).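 Note: cellular uptake of fluorescent DiI-labeled HDL measured as cell fluorescence.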 The format is functional, cell-based.
Assay [8] addresses T2, Zinc finger protein mex-5 (Caenorhabditis elegans, UniProt Q9XUB2).
T2 sequence (Q9XUB2 whole entry): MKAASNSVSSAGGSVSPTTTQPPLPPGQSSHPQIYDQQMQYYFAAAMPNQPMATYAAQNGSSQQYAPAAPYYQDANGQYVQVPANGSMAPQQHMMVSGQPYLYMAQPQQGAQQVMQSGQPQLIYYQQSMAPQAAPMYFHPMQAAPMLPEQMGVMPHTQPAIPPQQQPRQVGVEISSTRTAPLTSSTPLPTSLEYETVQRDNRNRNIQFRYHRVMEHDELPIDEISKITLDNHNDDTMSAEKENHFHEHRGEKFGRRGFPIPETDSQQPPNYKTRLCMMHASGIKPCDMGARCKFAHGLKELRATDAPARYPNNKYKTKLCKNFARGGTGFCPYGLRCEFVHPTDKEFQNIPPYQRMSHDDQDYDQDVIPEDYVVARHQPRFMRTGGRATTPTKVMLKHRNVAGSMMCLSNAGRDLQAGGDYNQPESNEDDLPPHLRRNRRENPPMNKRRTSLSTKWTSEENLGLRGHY
Put plainly: potency of MEX-5 RNA-binding blockers – biochemical, C. elegans, fluorescence polarization, dose response (AID 1960).

In assay [9] the target is T3, RNA-binding protein pos-1 (Caenorhabditis elegans, UniProt G5EF15).
T3 sequence (G5EF15 whole entry): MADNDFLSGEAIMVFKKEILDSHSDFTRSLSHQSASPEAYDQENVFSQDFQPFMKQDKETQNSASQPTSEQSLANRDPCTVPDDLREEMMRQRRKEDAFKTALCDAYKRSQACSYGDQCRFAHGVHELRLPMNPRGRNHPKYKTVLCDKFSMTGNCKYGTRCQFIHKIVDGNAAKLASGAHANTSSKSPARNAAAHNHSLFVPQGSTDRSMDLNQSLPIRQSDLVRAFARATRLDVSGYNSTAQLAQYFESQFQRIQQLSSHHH
The experiment in a line: disruptors of C. elegans POS-1 RNA interaction – biochemical, fluorescence polarization, dose response (AID 1964).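 Note: purified POS-1 fused to maltose binding protein made in E. coli; potency of compounds blocking POS-1 binding to fluorescent RNA.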

Assay [10] concerns the target Peroxisome proliferator-activated receptor gamma/Nuclear receptor coactivator 3 (Homo sapiens, UniProt P37231). The format is functional.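 Note: agonist potency for raising coactivator recruitment to the receptor.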
For assay [11], the target named is Peroxisome proliferator-activated receptor gamma/Nuclear receptor coactivator 1 (Homo sapiens, UniProt P37231). The format is functional.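 Note: agonist potency as compounds enhance coactivator SRC-1 recruitment to PPARgamma.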
Assay [12] has as its target T4, Ubiquitin-conjugating enzyme E2 N (Homo sapiens, UniProt P61088).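 Note: Dose-response confirmation in a TR-FRET assay detecting UBC13-driven polyubiquitin chain formation, inhibition measured.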
T4 sequence (P61088 whole entry): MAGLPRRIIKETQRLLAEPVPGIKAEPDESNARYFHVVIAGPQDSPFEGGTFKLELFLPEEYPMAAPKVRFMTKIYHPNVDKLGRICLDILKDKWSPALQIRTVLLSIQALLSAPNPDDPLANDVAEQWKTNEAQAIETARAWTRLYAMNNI
The format is functional.

Assay [13] is described as follows: Luminescence Cell-Based Dose Retest to Confirm Inhibitors of Cancer Stem Cells. [Related pubchem assays (depositor defined):AID2717, AID2721]. The format is functional. Particulars: Homo sapiens.
The target in assay [14] is Cyclin-dependent kinase 5/CDK5 activator 1 (Homo sapiens, UniProt Q00535). Put plainly: blockade of human CDK5 activity – biochemical, cherry-picked samples, set 2, dose response (AID 504545).
Cyclin-dependent kinase 5/CDK5 activator 1, sequence (Q00535 whole entry): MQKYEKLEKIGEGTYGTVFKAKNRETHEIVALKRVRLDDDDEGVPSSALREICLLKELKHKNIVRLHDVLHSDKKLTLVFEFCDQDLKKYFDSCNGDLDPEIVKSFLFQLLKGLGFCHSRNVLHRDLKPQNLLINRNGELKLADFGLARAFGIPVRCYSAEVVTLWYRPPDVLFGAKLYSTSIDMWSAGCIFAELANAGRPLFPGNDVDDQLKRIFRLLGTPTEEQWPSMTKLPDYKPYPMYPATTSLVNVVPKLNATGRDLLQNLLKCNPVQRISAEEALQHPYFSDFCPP
Cyclin-dependent kinase 5/CDK5 activator 1, sequence (Q15078 whole entry, further chain): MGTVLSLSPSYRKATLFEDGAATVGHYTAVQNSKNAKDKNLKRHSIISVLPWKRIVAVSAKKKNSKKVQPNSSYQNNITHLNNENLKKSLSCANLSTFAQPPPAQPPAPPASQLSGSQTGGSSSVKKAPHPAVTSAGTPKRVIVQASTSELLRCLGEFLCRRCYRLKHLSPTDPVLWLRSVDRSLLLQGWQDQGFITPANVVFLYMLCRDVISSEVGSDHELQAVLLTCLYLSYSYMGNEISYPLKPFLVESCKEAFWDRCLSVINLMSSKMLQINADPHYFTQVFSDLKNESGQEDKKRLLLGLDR

Acyl-homoserine lactone acylase PvdQ, sequence (Q9I194 24-193 limits assumed): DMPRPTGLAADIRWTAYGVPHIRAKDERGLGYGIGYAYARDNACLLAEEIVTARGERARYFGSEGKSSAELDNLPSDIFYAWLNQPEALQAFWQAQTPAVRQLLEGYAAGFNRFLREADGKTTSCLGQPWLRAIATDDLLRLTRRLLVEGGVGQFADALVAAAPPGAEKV
Acyl-homoserine lactone acylase PvdQ, sequence (Q9I194 217-762 limits assumed): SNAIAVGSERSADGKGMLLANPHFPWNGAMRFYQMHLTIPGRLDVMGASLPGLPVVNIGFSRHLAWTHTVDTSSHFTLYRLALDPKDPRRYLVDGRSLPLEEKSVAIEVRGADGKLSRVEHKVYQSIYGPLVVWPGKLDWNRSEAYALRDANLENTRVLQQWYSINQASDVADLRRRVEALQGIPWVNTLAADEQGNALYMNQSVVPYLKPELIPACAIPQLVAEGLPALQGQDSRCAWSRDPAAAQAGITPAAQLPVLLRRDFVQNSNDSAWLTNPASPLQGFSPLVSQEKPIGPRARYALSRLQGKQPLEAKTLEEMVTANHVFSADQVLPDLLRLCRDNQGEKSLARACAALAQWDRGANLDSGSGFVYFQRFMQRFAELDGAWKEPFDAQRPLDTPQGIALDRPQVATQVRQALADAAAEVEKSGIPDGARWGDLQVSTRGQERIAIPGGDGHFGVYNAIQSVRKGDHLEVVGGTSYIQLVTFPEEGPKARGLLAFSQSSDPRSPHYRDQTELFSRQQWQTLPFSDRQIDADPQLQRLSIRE
Dual specificity protein phosphatase 3, sequence (P51452 whole entry): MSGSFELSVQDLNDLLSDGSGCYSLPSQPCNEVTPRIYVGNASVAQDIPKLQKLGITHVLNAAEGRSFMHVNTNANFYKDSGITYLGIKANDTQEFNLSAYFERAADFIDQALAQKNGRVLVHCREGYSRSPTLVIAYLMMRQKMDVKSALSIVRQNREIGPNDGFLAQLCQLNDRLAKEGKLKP
Cytochrome P450 2C19, sequence (P33261 whole entry): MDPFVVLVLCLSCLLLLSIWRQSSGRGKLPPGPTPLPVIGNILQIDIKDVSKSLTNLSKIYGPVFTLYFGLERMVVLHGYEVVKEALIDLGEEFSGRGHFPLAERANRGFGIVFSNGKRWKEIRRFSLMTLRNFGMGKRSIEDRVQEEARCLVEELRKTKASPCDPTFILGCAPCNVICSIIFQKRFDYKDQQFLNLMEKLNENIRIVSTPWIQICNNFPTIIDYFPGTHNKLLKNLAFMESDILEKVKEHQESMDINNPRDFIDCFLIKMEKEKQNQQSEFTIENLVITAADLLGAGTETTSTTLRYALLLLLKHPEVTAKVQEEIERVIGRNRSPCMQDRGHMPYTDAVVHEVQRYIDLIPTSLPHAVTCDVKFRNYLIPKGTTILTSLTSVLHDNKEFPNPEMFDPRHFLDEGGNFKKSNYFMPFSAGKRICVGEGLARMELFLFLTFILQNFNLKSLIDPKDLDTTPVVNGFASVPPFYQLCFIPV
Cytochrome P450 2C9, sequence (P11712 whole entry): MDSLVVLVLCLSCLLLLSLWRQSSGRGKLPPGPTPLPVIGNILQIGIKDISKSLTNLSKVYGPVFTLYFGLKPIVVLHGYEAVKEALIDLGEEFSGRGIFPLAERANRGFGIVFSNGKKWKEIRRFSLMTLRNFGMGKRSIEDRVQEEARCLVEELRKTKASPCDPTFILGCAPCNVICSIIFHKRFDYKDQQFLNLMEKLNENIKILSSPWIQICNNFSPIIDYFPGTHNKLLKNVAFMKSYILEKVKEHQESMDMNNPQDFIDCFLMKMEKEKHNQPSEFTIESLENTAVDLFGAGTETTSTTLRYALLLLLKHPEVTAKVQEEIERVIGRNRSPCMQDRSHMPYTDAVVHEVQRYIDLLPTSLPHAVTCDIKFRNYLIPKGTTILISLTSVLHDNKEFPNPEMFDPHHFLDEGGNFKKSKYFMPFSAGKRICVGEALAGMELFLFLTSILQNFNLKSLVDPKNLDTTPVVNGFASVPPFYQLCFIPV
Peroxisome proliferator-activated receptor gamma/Nuclear receptor coactivator 2, sequence (P37231 whole entry): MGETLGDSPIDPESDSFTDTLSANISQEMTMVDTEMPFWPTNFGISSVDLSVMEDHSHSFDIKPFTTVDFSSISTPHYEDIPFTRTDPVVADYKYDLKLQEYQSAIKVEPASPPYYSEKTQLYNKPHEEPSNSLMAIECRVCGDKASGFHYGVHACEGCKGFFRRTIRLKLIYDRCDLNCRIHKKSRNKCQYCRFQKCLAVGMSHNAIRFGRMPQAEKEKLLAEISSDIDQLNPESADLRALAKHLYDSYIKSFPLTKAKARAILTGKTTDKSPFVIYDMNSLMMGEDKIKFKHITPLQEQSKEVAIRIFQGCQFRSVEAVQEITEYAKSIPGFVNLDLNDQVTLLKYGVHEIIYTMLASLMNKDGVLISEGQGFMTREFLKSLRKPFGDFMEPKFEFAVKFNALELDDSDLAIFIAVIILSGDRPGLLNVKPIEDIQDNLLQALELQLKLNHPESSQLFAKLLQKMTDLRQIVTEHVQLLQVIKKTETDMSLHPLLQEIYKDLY
Peroxisome proliferator-activated receptor gamma/Nuclear receptor coactivator 2, sequence (Q15596 whole entry, further chain): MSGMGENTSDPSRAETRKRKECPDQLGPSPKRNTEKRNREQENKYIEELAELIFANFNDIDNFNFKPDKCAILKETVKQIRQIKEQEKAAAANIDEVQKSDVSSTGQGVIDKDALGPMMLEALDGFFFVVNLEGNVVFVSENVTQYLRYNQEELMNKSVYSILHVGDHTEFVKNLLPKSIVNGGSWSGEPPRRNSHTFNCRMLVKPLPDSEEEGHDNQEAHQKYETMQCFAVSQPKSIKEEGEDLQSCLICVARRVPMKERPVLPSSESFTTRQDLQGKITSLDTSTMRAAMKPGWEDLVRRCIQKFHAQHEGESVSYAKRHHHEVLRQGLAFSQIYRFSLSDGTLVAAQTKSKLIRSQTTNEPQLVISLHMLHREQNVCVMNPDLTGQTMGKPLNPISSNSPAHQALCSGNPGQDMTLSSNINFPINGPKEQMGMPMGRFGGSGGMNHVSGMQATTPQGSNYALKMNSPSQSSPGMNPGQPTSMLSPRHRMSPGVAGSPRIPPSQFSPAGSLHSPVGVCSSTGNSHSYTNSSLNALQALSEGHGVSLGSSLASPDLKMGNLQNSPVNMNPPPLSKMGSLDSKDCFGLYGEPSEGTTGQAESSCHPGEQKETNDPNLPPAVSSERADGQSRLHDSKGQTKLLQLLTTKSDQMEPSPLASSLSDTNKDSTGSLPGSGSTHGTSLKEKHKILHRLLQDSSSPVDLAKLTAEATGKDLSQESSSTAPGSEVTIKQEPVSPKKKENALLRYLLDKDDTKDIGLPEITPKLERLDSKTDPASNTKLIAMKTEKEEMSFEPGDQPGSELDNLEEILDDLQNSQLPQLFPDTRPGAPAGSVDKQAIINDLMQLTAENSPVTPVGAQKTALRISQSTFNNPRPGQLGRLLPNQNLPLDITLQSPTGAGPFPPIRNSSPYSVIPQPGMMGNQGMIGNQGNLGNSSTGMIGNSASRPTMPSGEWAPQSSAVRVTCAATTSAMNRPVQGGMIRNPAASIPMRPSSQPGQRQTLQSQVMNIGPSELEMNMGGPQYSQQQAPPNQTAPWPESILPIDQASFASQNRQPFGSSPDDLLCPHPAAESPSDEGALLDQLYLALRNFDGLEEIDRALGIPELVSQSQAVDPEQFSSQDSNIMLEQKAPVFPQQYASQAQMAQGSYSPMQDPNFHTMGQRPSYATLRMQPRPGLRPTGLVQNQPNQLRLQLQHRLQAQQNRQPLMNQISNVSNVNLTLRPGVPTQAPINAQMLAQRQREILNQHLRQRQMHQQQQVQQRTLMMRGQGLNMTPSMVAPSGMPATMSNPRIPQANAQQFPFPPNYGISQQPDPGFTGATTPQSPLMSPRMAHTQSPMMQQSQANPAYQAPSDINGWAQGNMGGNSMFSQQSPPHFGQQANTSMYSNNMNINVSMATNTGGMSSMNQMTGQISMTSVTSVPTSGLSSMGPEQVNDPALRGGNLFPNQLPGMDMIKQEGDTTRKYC
Scavenger receptor class B member 1, sequence (Q61009 whole entry): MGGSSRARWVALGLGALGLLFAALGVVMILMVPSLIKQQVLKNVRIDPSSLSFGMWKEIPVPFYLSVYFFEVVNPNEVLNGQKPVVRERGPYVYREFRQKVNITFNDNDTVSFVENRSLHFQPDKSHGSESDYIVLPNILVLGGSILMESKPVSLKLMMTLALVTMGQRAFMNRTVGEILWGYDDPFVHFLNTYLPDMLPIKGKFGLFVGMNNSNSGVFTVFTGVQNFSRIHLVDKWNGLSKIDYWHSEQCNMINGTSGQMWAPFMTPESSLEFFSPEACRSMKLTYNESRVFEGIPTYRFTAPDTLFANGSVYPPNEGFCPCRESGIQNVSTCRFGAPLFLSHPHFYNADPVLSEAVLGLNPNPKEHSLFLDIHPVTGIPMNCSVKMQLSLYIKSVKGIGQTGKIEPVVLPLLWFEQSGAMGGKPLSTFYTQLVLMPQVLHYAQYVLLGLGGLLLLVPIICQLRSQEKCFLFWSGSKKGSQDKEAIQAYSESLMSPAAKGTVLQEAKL

For the compound `COC(=O)\C(C(C)=O)=C(/C=C/C=C/C=C/N(C)C)N(C)C`, the IC50 in assay [1] is 8.38 µM (active). Also, the concentration at half-maximal activity (AC50) on Cytochrome P450 2C9 is 15.8 µM (inconclusive); in the assay with HeLa it was 274 µM (active); on Cytochrome P450 2C19 it was 14.1 µM (inconclusive). Also, the CC50 in assay [2] is > 40 µM (active).
`O=[N+]([O-])c1ccc(Sc2ccccc2Cl)nc1`: the concentration at half-maximal activity (AC50) in [3] is 33.2 µM (active).
On to `COc1ccc(-c2csc(Nc3ccc(N)cc3)n2)cc1OC`, for which the Ki in assay [4] was 71.1 µM (inactive).
Take `Cc1cc(C)c2c(c1)NC(c1cc3c(cc1Br)OCO3)C1CC=CC21` (centres undefined): the 50% effective concentration (EC50) on Streptokinase A is > 150 µM (not active); with Streptococcus, 114 µM (active); in assay [5], 5.11 µM (active); in assay [6], > 79.4 µM (not active); in assay [8] it was > 300 µM (not active); in [9] it was > 300 µM (not active). Also, the EC50 in assay [10] and in [11] was > 79.4 µM (not active) throughout. For the same compound, the AC50 in assay [7] was 19 µM (active).
With `CC[C@H](CO)Nc1nc(Nc2cccc(Cl)c2)c2ncn(C(C)C)c2n1`, in assay [12], the IC50 was > 20 µM (inactive). The results for the concentration at half-maximal activity (AC50) in assay [13] and in assay [14] were 6.4 µM (active) and 0.275 µM (active), respectively.

For the origin of these results see ChEMBL document CHEMBL1201862, “PubChem BioAssay data set” (2004).
